We go through 2 compounds from patent publication US20240008480A1, “MICROCAPSULE WITH ACETAMIDES AND DIFLUFENICAN” (MONSANTO TECHNOLOGY LLC, priority 2020, published 2024).

In test [1] the test system is glyphosate resistant Canola (Roundup Ready® Canola). Description: Greenhouse post-emergent efficacy in glyphosate resistant Canola, Example 3C. The test is classed as in vivo. The note with it: text statement on Table 3C. As to the method:
ACC and DFF were used as the commercial products Warrant® and Brodal® as described in Example 3A above. The seeds of glyphosate resistant Canola (Roundup Ready® Canola) were planted in 3.5-inches (8.89 cm) square plastic pots filled with a potting media of 75% silt loam and 25% Redi-earth (Sun Gro, Bellevue, WA). The temperature conditions were 22° C. day and 17° C. night with 14 hours of supplemental light (approximately 600 microeinsteins). The pots are placed in a controlled-environment greenhouse equipped with sub-irrigation. The treatments applications were applied to the plants with a track sprayer generally using a TTI110015 nozzle spray nozzle. The spray nozzle was 16 inches (40.64 cm) above the top of the plants and a spray volume rate of about 140 L/ha was applied. The plants were sprayed when canola was at the V3-V4 growth stage. Visual ratings (% control) were collected at 14 DAT.

Test [2] deals with GR (glyphosate resistant) palmer amaranth (AMAPA). The test is described as follows: Greenhouse pre-emergent efficacy, Example 3B. The test is classed as in vivo, Amaranthus palmeri. The text has this: (§1) ACC, DFF and MRB were used as the commercial products Warrant®, Brodal® and TriCor® DF as described in Example 3A above. Further, also a DFF+MRB pre-mix (200 g/L DFF+400 g/L MRB, suspension concentrate) was used. For GR (glyphosate resistant) palmer amaranth (AMAPA), at 1X rate, all 2- and 3-way treatments provided >95% control. Except for the DFF+MRB pre-mix, these treatments also provided >95% control of GR AMAPA at ½X rate as well. No single active ingredient provided acceptable control of GR AMAPA in this trial.

Another test relates to proso millet (PANMI). The test is described as follows: Greenhouse pre-emergent efficacy, Example 3B. The format is in vivo, Panicum miliaceum. Particulars: both rates tested.
Text: as §1

`CCOCN(C(=O)CCl)c1c(C)cccc1CC` [ACC, 2-chloro-N-(ethoxymethyl)-N-(2-ethyl-6-methylphenyl)acetamide]: the “herbicidal activity on glyphosate resistant Canola, in words” value in test [1] is recorded as “very low herbicidal activity”. Moreover, the “control of GR AMAPA, in words” value in test [2] was “weak control”. Moreover, in the test on proso millet (PANMI), the “control of proso millet (PANMI), in words” value is listed as “weak control”.
Consider `O=C(Nc1ccc(F)cc1F)c1cccnc1Oc1cccc(C(F)(F)F)c1` [DFF, N-(2,4-difluorophenyl)-2-[3-(trifluoromethyl)phenoxy]-3-pyridinecarboxamide], for which the “control of GR AMAPA, in words” value in test [2] was “weak control”. Further, the “control of proso millet (PANMI), in words” value in the test on proso millet (PANMI) is given as “weak control”.
